{"source": "patent US20070122830A1", "about": "“Prohibitin-directed diagnostics and therapeutics for cancer and chemotherapeutic drug resistance” (Aurelium BioPharma Inc., priority 2005, published 2007)", "key": {"[1]": {"test_system": "prohibitin", "assay": "Prohibitin silencing by siRNA in MDA cells, anti-prohibitin immunoblot", "format": "cell-based, human", "conditions": "for decrease in prohibitin expression: MDA cell lines", "protocol": "Cell extracts from drug-resistant and drug-sensitive cell lines were prepared to determine the expression levels of potential therapeutic targets in drug-resistant cells. Briefly, cultured cells were rinsed 2 times with 15 ml of 1× phosphate buffered saline (“PBS”), and harvested by trypsinization. Cells were collected in a 15 ml tube by centrifugation at 1000 rpm for 5 min. The supernatant was discarded and cells were washed 3 times with 1×PBS. The cell pellet was transferred to an Eppendorf tube and […] of 1×PBS were added. Cells were centrifuged 5 min. at 3000 rpm in an Eppendorf Microfuge. The supernatant was removed and cells were then lysed in […] of lysis buffer (50 mM Tris, pH 7.5, 150 mM NaCl, 1% NP-40, 0.5% sodium deoxycholate), containing protease inhibitors ([…], […] benzamidine, 0.2 mM PMSF) and incubated 5 min. on ice. The cell lysates were then centrifuged at 14,000×g for 10 min. at 4° C. The protein concentration of the supernatants was determined by the DC Protein assay (BioRad, Hercules, Calif.). Samples were subsequently stored at −80° C. until ready for analysis.\nTotal cell lysates were thawed and then incubated with 1 U/ml DNAse I (New England BioLabs, Inc., Beverly, Mass.), 5 mM MgCl2 (final concentration) for 2 hours on ice. Their protein concentration was determined using the RC DC protein assay kit from BIORAD according to manufacturer's instructions (BioRad Laboratories, Hercules, Calif.) (see also Lowry et al., (1951) J. Biol. Chem. 193: 265-275). Equivalent amounts of proteins ([…]) from total cell extracts from sensitive (MCF7, MDA-MB-231) and chemotherapeutic drug-resistant cells (MCF7/AR and MDA-MB-231/AR) were analyzed by polyacrylamide gel electrophoresis followed by blotting to a nitrocellulose membrane. The membrane was subsequently contacted with an anti-prohibitin antibody obtained from Abcam, Inc., Cambridge, Mass. The immunoblots were incubated with an anti-IgG secondary antibody and visualized using horseradish peroxidase using the manufacturer's protocol (Bio-Rad Laboratories, Hercules, Calif.).\nTo establish the importance of prohibitin to the expression of the drug-resistant phenotype in MDA cell lines, prohibitin expression was silenced using RNAi. Briefly, the following siRNA duplexes targeting the human prohibitin mRNA were designed and purchased either from Ambion (Austin, Tex.) or Invitrogen (Carlsbad, Calif.). […]\nThe siRNA duplex was predesigned, synthesized with 3′TT overhangs, purified and annealed by Ambion (Austin, Tex.). […] Transfection efficiencies were typically evaluated 24-48 hrs post transfection using a fluorescence microscope. […]"}, "[2]": {"test_system": "prohibitin", "assay": "Prohibitin silencing by siRNA in MCF-7 cells, anti-prohibitin immunoblot", "format": "cell-based, human", "conditions": "MCF-7 cell line; FIG. 6", "text": "To establish the importance of prohibitin to the expression of the drug-resistant phenotype in MDA cell lines, prohibitin expression was silenced using RNAi. Briefly, the following siRNA duplexes targeting the human prohibitin mRNA were designed and purchased either from Ambion (Austin, Tex.) or Invitrogen (Carlsbad, Calif.). The siRNA duplex sequences corresponding to nucleotides 425 through 443 (GenBank SEQ ID NUMBER: U49725.1) targeting the start of the prohibitin mRNA transcript were:\nFor a typical siRNA transfection, 1 nmole of the annealed siRNA duplex was mixed with 1.4 ml of Opti-MEM reagent (Invitrogen). In another tube, […] of Oligofectamine reagent (Invitrogen, Carlsbad, Calif.) was mixed with […] of Opti-MEM. The two solutions were combined and mixed gently by inversion and incubated for 20 min. at RT. The resulting solution was added to the cultured cells drop by drop in a 10 cm dish (cells are approximately 40-50% confluent). The next day the transfected cells were trypsinized and seeded in 6 or 96-well plates and further incubated for the indicated amount of time (assay dependent) before further analysis.\nTargeted silencing of prohibitin was performed as described in Example 2 above."}}, "data": [{"substance": "prohibitin siRNA: siRNA duplex to human prohibitin mRNA nt 425-443; sense 5′-GGAAGUGGUCUGUCUGUUAtt-3′, antisense 5′-UAACAGACAGACCACUUCCtt-3′ (sense GGAAGUGGUCUGUCUGUUATT; antisense UAACAGACAGACCACUUCCTT; chemistry not given here)", "values": [{"measurement": "decrease in prohibitin expression", "setting": "[1]; four days post-treatment, FIG. 2", "value": 43, "unit": "%"}, {"measurement": "decrease in prohibitin expression", "setting": "[1]; fourth day after treatment, FIG. 3", "value": 58, "unit": "%"}, {"measurement": "decrease in prohibitin expression", "setting": "[1]; two days post-treatment, FIG. 2", "value": 79, "unit": "%"}, {"measurement": "additional decrease in prohibitin expression compared to mock silencing", "setting": "[1]; MDA cells, FIG. 5", "value": 60, "unit": "%"}, {"measurement": "decrease in prohibitin expression as compared to mock siRNA", "setting": "[2]", "value": 37, "unit": "%"}]}]}
